In assay [1] the test system is Liver microsomes. Description: Antioxidant activity in rat liver microsomes assessed as inhibition of ethoxyresorufin O-deethylase activity at 1000 uM. The format is functional. The note with it: Microsome.
The subject of assay [2] is Liver microsomes. Description: Antioxidant activity in rat liver microsomes assessed as inhibition of ethoxyresorufin O-deethylase activity. The class given is functional, Microsome. (In general: Microsomes from liver hold many membrane-bound enzymes, among them those of drug oxidation.)
Assay [3] deals with Radical scavenging activity. Description: Antioxidant activity assessed as DPPH free radical scavenging activity after 30 mins. The format is functional. On the technique in general: Loss of DPPH colour is used to gauge radical scavenging.
The nature of assay [4]: Antioxidant activity assessed as inhibition of superoxide radical anion formation at 0.1 mM. The class given is functional.
The test system of assay [5] is Liver microsomes. Kind of assay: Antioxidant activity in albino Wistar rat liver microsomes assessed as inhibition of NADPH-dependent lipid peroxidation at 1000 uM. The class given is functional. The note with it: Microsome.

Calls of active or inactive are those of the source. The calls are words filed in the database; no cut-off is given here.

As a reminder, the inhibition is how much of the control response was suppressed. Usually IC50 stands for the concentration that gives 50% inhibition. Turning to `Cn1c(=O)c2c(ncn2C)n(C)c1=O` [CAFFEINE], in the assay on Liver microsomes [1], the Activity worked out at 8.31 pmol/mg/min and the inhibition was determined as 80%. Also, the IC50 in the assay on Liver microsomes [2] amounted to 520 µM.

Consider `Cn1c(Cn2c(-c3ccc(Cl)cc3)nc3ccccc32)n[nH]c1=S`, for which the IC50 in assay [3] came to 462 µM; in the assay with Liver microsomes [2], 450 µM. In assay [4], the outcome was inactive. Also, the Activity came to 26.6 nmol/mg/min with Liver microsomes [5] and 7.89 pmol/mg/min in the assay with Liver microsomes [1]. Moreover, in the assay with Liver microsomes [1], the inhibition is 81%.

`COc1ccc(-c2nc3cc(Cl)c(Cl)cc3n2Cc2n[nH]c(=S)n2C)cc1OC`: the IC50 in assay [3] came to 271 µM. For the same compound, the result in assay [4] was inactive. In addition, the Activity in the assay on Liver microsomes [5] stood at 27.5 nmol/mg/min; in the assay with Liver microsomes [1] it was 18.3 pmol/mg/min.

Consider `CNC(=S)NNC(=O)Cn1c(-c2ccc(OC)c(OC)c2)nc2cc(Cl)c(Cl)cc21`, for which the IC50 in assay [3] amounted to 55 µM; with Liver microsomes [2], 840 µM. The inhibition worked out at 26% in assay [4] and 70% in the assay with Liver microsomes [1]. In addition, the Activity was 14.8 nmol/mg/min in the assay on Liver microsomes [5] and 12.3 pmol/mg/min with Liver microsomes [1].

With `CNC(=S)NNC(=O)Cn1c(-c2ccccc2)nc2ccccc21`, in assay [3], the half-maximal inhibitory concentration (IC50) was 26 µM. Also, in assay [4], the inhibition was 22%. The Activity turned out to be 19.2 nmol/mg/min in the assay with Liver microsomes [5] and 51 pmol/mg/min in the assay with Liver microsomes [1].

Take `CNC(=S)NNC(=O)Cn1c(-c2ccc(Cl)cc2)nc2ccccc21`: the concentration for half-maximal inhibition (IC50) in assay [3] stood at 30 µM. For the same compound, the inhibition in assay [4] worked out at 38%; in the assay on Liver microsomes [5], 20%. The values for the Activity in the assay with Liver microsomes [5] and with Liver microsomes [1] were 13.1 nmol/mg/min and 28.3 pmol/mg/min, respectively.

Take `CNc1nnc(Cn2c(-c3ccc(OC)cc3)nc3ccccc32)s1`: in assay [3], the IC50 was more than 1000 µM. Further, the inhibition in assay [4] came out at 5%; in the assay with Liver microsomes [5], 11%. Further, the Activity in the assay on Liver microsomes [5] turned out to be 14.4 nmol/mg/min; with Liver microsomes [1] it was 34.3 pmol/mg/min.

In the case of `COc1ccc(-c2nc3ccccc3n2Cc2n[nH]c(=S)n2C)cc1`, the IC50 in assay [3] was determined as 140 µM. The inhibition in assay [4] worked out at 5%. Besides, the Activity in the assay on Liver microsomes [5] was found to be 23.1 nmol/mg/min; in the assay with Liver microsomes [1], 15.8 pmol/mg/min.

Turning to `CNc1nnc(Cn2c(-c3ccc(OC)c(OC)c3)nc3cc(Cl)c(Cl)cc32)s1`, the half-inhibitory concentration (IC50) in assay [3] was more than 1000 µM. For the same compound, the inhibition was 31% in assay [4], 28% in the assay on Liver microsomes [5] and 66% in the assay with Liver microsomes [1]. Moreover, the Activity in the assay on Liver microsomes [5] came out at 11.8 nmol/mg/min; in the assay with Liver microsomes [1], 12.2 pmol/mg/min.

`CNc1nnc(Cn2c(-c3ccc(O)cc3)nc3ccccc32)s1`: the IC50 in assay [3] is more than 1000 µM. Also, the inhibition in assay [4] was 5%. For the same compound, the results for the Activity in the assay on Liver microsomes [5] and with Liver microsomes [1] were 129 nmol/mg/min and 36.1 pmol/mg/min, respectively.

Regarding `COc1ccc(NC(=S)NNC(=O)Cn2c(-c3ccncc3)nc3ccccc32)cc1`, in assay [3], the half-inhibitory concentration (IC50) came out at 12 µM.

Regarding `CNC(=S)NNC(=O)Cn1c(-c2ccc(OCc3ccccc3)cc2)nc2ccccc21`, the half-inhibitory concentration (IC50) in assay [3] turned out to be 74 µM. In addition, the inhibition in assay [4] came to 5%. In addition, the figures for the Activity with Liver microsomes [5] and in the assay with Liver microsomes [1] were 96.6 nmol/mg/min and 28.6 pmol/mg/min, respectively.

Regarding `Cn1c(Cn2c(-c3ccc(OCc4ccccc4)cc3)nc3ccccc32)n[nH]c1=S`, in assay [3], the half-inhibitory concentration (IC50) amounted to 605 µM. Also, the inhibition in assay [4] is 5%. In addition, the Activity with Liver microsomes [5] was 69.6 nmol/mg/min; in the assay with Liver microsomes [1], 18 pmol/mg/min.

For the compound `CNC(=S)NNC(=O)Cn1c(-c2ccc(OC)cc2)nc2ccccc21`, the half-inhibitory concentration (IC50) in assay [3] amounted to 43 µM. The result in assay [4] was inactive. Besides, the figures for the Activity in the assay with Liver microsomes [5] and in the assay with Liver microsomes [1] were 16.1 nmol/mg/min and 34.5 pmol/mg/min, respectively.

As for `Cc1cc(C(C)(C)C)c(O)c(C(C)(C)C)c1` [BUTYLATED HYDROXYTOLUENE], the IC50 in assay [3] stood at 54 µM. In addition, the Activity in the assay on Liver microsomes [5] was 5.68 nmol/mg/min.

As to `O=C(Cn1c(-c2ccncc2)nc2ccccc21)NNC(=S)Nc1ccccc1`, the IC50 in assay [3] turned out to be 13 µM.

As for `CNc1nnc(Cn2c(-c3ccc(Cl)cc3)nc3ccccc32)s1`, in assay [4], the inhibition was 21%. Besides, the Activity in the assay with Liver microsomes [5] was 16.1 nmol/mg/min; with Liver microsomes [1], 2.46 pmol/mg/min.
